Results published in US5422341A, “Motilin-like polypeptides with gastrointestinal motor stimulating activity” (Ohmeda Pharmaceutical Products Division Inc., priority 1993, dated 1995).
Structures can show the parent of a compound that is named as a salt. Square brackets hold non-standard residues; d marks the D form. Peptide text beside a SMILES is read from it. * marks the point of attachment. X1 = C[N+](C)(C)[C@@H](Cc1ccccc1)C(=O)*; NMe2Phe = CN(C)[C@@H](Cc1ccccc1)C(=O)*; NMeF = CN[C@@H](Cc1ccccc1)C(=O)O

Columns and labels:
[1] = assay type: in vitro ADME, hog; details: pH 7
Protocol: Like most small linear polypeptides, motilin is believed to be metabolized lo by the brush border cells of the kidney. Therefore, kidney homogenate was chosen as the model system for assessing the relative in vivo biostability of the peptides of this invention. All peptides to be studied were incubated in hog kidney (Pel Freeze, Inc., Rogers, Ark.) (2% w/v; final volume=4 ml; buffer=HEPES pH 7.0) at 25° C. Both initial substrate concentration and internal standard (Fmoc-Gly) concentration were 0.5 mg/ml. In order to determine suitable incubation times and sampling intervals, two experiments were conducted with each polypeptide. The first run served as a rough estimate of peptide stability. All sampling was performed in duplicate. Sample volume was 180 μl.
Sample clean-up was performed by addition of 20 μl of 100% TCA (final volume=200 μl; final TCA concentration=10%). The sample was vortexed for from 5 to 10 seconds to ensure equilibration, then centrifuged to spin out the precipitated proteins. Analysis was carried out on a Waters HPLC system with a WISP autoinjector, a 5μ Vydac C-18 analytical column, and a Waters 481 UV detector set at 214 nm. Injection volume was 80 μl. Initial solvent conditions were […] in Milli-Q water with a 35 minute gradient running to 63% acetonitrile/37% (0.1%) TFA at 1 ml/min.
Polypeptide substrate and metabolite peaks were ratioed to the internal standard and the duplicate sample ratios were averaged. The avenge ratio for the peptide substrate was expressed as a percentage and plotted versus time. First-order kinetics was assumed for data treatment. The rate of disappearance of the substrate was calculated using the Enzfitter program (Biosoft). Relative half-lives were determined from the relationship: […]

[2] = test system: canine gastrointestinal tract; experiment: Contractile activity in the canine gastrointestinal tract; assay type: in vivo, dog; details: anesthetized dogs, intra-arterial injection to a duodenal segment; amount giving 50% of the calibration response to field stimulation
Protocol: Mongrel dogs of either sex were anesthetized with sodium pentobarbital 65 mg/kg intravenously. A mid-line incision was made in the abdomen. A duodenal segment was located, the terminal arteries to that segment were identified, and the closest possible artery of the appropriate size was rubbed clean of fat and fascia. A needle of suitable diameter was bent at an angle and the tip inserted in the cleaned artery. The needle was held in position in the artery for approximately 30 seconds until vascular spasm has relaxed and then a catheter assembly was inserted into the artery and tied into position with 000 silk sutures. The fine polyethylene catheter (10-15 cm) was cut to a point at one end with a needle inserted at the other end. The hub of the needle was fitted with a 3-way stopcock and the catheter assembly was filled with heparinized Krebs Ringer bicarbonate containing 10 mM glucose. A bolus of Krebs (free of air) was injected into the arterial catheter and the distribution of blanching in the segment noted. If the area was too large, collateral arteries may be tied off as long as circulation to the area was maintained. A Bass type strain gauge was then sutured to the serosa, and oriented so that circular muscle contractions can be recorded on a Beckman R611 dynograph. Silver wire electrodes were inserted subserosally on either side of the strain gauge and were connected through stimulus isolation units to a Grass S88 electrical stimulator. Electrical field stimulation was applied at 40 V 0.5 ms and 5 pps and the amplitude of the pen recorder was set to contain the contractile response.
All peptides to be injected were dissolved in Krebs and serial dilutions were prepared so that for any concentration the maximum volume to be injected was 1 ml. All solutions except stock Krebs were held on ice for the day of the experiment and discarded at the end of the day. For determination of a dose-response curve, the site was first injected with a bolus of approximately 1 ml of heparinized Krebs to provide a flush control. Peptide agonists (in volumes of 1 ml flushed with 1 ml of Krebs) were injected in logarithmic increments until a response which was maximal in amplitude was obtained. The injection site was then flushed with Krebs containing 0.1% BSA to displace any peptide remaining in the arterial line. For peptides acting at the motilin receptor, care was taken not to inject supramaximal doses as these will induce tachyphylaxis. Therefore, as responses become apparent, 0.3 or 0.5 log unit increments were used. A site was used for a dose-response determination only every 1/2 to 1 hour.
The amplitude of the calibration response to field stimulation in each site was measured and used as 100% for that site. The amplitude of the response to the agonist at each dose was determined, calculated as a % of the calibration response and plotted against the concentration. The ED50 of the response represents the amount of agonist required to produce a response which was 50% of the calibration response.

motilin receptor = biological target: T1, motilin receptor (Oryctolagus cuniculus, UniProt G1T803); experiment: Determination of motilin receptor binding affinity (displacement of [125I-Tyr7, Nle13]motilin(porcine)); set-up: species or system rabbit; details: negative logarithm of the concentration displacing 50% of [125I-Tyr7, Nle13]motilin(porcine) from rabbit antral smooth muscle membranes; read-out: pIC50 (converted)
T1 construct: from tissue; host or cells: rabbit antral smooth muscle membranes
T1 sequence (G1T803 1-400): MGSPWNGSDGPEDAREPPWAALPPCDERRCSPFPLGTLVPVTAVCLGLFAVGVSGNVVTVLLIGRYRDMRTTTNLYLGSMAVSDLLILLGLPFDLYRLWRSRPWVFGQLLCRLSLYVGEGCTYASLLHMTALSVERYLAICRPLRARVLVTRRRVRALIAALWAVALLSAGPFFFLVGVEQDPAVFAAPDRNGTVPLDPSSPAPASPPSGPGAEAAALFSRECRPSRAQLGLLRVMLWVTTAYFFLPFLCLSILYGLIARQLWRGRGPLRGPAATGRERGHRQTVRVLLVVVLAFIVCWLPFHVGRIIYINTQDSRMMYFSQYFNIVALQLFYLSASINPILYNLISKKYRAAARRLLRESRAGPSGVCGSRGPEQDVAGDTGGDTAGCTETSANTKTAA
Protocol: The motilin receptor binding affinity of the peptides of this invention was determined by using the general procedure of Bormans, Peelers and Vantrappen, Regul. […] Fitting was performed using the iterative least-squares procedure of the SAS-software package (SAS Institute, Inc., Cary, N.C., USA).

[3] = biological target: segments of rabbit duodenum (Oryctolagus cuniculus, UniProt G1T803); experiment: Rabbit duodenal smooth muscle strip tissue bath assay; assay type: cell-based; details: negative logarithm of the dose giving 50% of the maximal response to motilin; isotonic contraction of rabbit duodenum segments
Sequence of segments of rabbit duodenum (G1T803 1-400): as above
Method in brief: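 Isotonic contraction of rabbit duodenal segments after 1 h equilibration and 10^-4 M acetylcholine challenge; cumulative compound curve over 10^-11 to 10^-4 M, then 10^-7 M motilin. Runs discarded if final acetylcholine response differed >5%. EC50 at 50% of maximal motilin response, reported as pEC50.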

Row | SMILES | T1/2 [1] | ED50 [2] [nmol] | IC50 (motilin receptor) [nM] | pEC50 [3]
1 | CC[C@H](C)[C@H](NC(=O)[C@@H]1CCCN1C(=O)[C@@H](NC(=O)[C@H](Cc1ccccc1)[N+](C)(C)C)C(C)C)C(=O)N[C@@H](Cc1ccccc1)C(=O)N[C@H](C(=O)N[C@@H](Cc1ccc(O)cc1)C(=O)NCC(=O)N[C@@H](CCC(=O)O)C(=O)N[C@@H](CC(C)C)C(=O)N[C@@H](C)C(=O)N[C@H](CCCNC(=N)N)C(=O)N[C@@H](CC(C)C)C(=O)N[C@@H](CCC(N)=O)C(N)=O)[C@@H](C)O (X1-VPIFTYGELA[dR]LQ-NH2) | 131.9 | 0.026 | – | –
2 | CC[C@H](C)[C@H](NC(=O)[C@H](C)NC(=O)[C@@H](NC(=O)[C@H](Cc1ccccc1)NC)C(C)C)C(=O)N[C@@H](Cc1ccccc1)C(=O)N[C@H](C(=O)N[C@@H](Cc1ccc(O)cc1)C(=O)NCC(=O)N[C@@H](CCC(=O)O)C(=O)N[C@@H](CC(C)C)C(=O)N[C@@H](C)C(=O)N[C@H](CCCNC(=N)N)C(=O)N[C@@H](CC(C)C)C(=O)N[C@H](CCCCN)C(N)=O)[C@@H](C)O [[1-N-Methylphenylalanine, 3-alaninc, 11-alanine, 12-D-arginine, 13-Leucine, 14-D-lysine]motilin-(1-14)-peptide Amide (Porcine) Tris-trifluoroacetate Salt] (H-[NMeF]VAIFTYGELA[dR]L[dK]-NH2) | – | 0.024 | 0.447 | 7.80
3 | CC[C@H](C)[C@H](NC(=O)[C@H](C)NC(=O)[C@@H](NC(=O)[C@H](Cc1ccccc1)[N+](C)(C)C)C(C)C)C(=O)N[C@@H](Cc1ccccc1)C(=O)N[C@H](C(=O)N[C@@H](Cc1ccc(O)cc1)C(=O)NCC(=O)N[C@@H](CCC(=O)O)C(=O)N[C@@H](CC(C)C)C(=O)N[C@@H](C)C(=O)N[C@H](CCCNC(=N)N)C(=O)N[C@@H](CC(C)C)C(=O)N[C@H](CCCCN)C(N)=O)[C@@H](C)O (X1-VAIFTYGELA[dR]L[dK]-NH2) | – | 0.007 | 1.15 | 7.55
4 | CC[C@H](C)[C@H](NC(=O)[C@H](C)NC(=O)[C@@H](NC(=O)[C@H](Cc1ccccc1)[N+](C)(C)C)C(C)C)C(=O)N[C@@H](Cc1ccccc1)C(=O)N[C@H](C(=O)N[C@@H](Cc1ccc(O)cc1)C(=O)NCC(=O)N[C@@H](CCC(=O)O)C(=O)N[C@@H](CC(C)C)C(=O)N[C@@H](CCC(N)=O)C(=O)N[C@H](CCCNC(=N)N)C(=O)N[C@@H](CC(C)C)C(=O)N[C@@H](CCCCN)C(N)=O)[C@@H](C)O (X1-VAIFTYGELQ[dR]LK-NH2) | – | 0.89 | 1.91 | 7.32
5 | CC[C@H](C)[C@H](NC(=O)[C@H](C)NC(=O)[C@@H](NC(=O)[C@H](Cc1ccccc1)NC)C(C)C)C(=O)N[C@@H](Cc1ccccc1)C(=O)N[C@H](C(=O)N[C@@H](Cc1ccc(O)cc1)C(=O)NCC(=O)N[C@@H](CCC(=O)O)C(=O)N[C@@H](CC(C)C)C(=O)N[C@@H](C)C(=O)N[C@H](CCCNC(=N)N)C(=O)N[C@@H](CC(C)C)C(=O)N[C@@H](CCCCN)C(N)=O)[C@@H](C)O (H-[NMeF]VAIFTYGELA[dR]LK-NH2) | – | 0.001 | 0.724 | 7.77
6 | CC[C@H](C)[C@H](NC(=O)[C@H](C)NC(=O)[C@@H](NC(=O)[C@H](Cc1ccccc1)N(C)C)C(C)C)C(=O)N[C@@H](Cc1ccccc1)C(=O)N[C@H](C(=O)N[C@@H](Cc1ccc(O)cc1)C(=O)NCC(=O)N[C@@H](CCC(=O)O)C(=O)N[C@@H](CC(C)C)C(=O)N[C@@H](C)C(=O)N[C@H](CCCNC(=N)N)C(=O)N[C@@H](CC(C)C)C(=O)N[C@@H](CCCCN)C(N)=O)[C@@H](C)O (NMe2Phe-VAIFTYGELA[dR]LK-NH2) | – | 0.003 | 0.708 | 7.74
7 | CC[C@H](C)[C@H](NC(=O)[C@@H]1CCCN1C(=O)[C@@H](NC(=O)[C@H](Cc1ccccc1)[N+](C)(C)C)C(C)C)C(=O)N[C@@H](Cc1ccccc1)C(=O)N[C@H](C(=O)N[C@@H](Cc1ccc(O)cc1)C(=O)NCC(=O)N[C@@H](CCC(=O)O)C(=O)N[C@@H](CC(C)C)C(=O)N[C@@H](CCC(N)=O)C(=O)N[C@H](CCCNC(=N)N)C(=O)N[C@@H](CC(C)C)C(=O)N[C@@H](CCC(N)=O)C(N)=O)[C@@H](C)O (X1-VPIFTYGELQ[dR]LQ-NH2) | 95 | 0.017 | – | –
8 | CC[C@H](C)[C@H](NC(=O)[C@@H]1CCCN1C(=O)[C@@H](NC(=O)[C@H](Cc1ccccc1)[N+](C)(C)C)C(C)C)C(=O)N[C@@H](Cc1ccccc1)C(=O)N[C@H](C(=O)N[C@@H](Cc1ccc(O)cc1)C(=O)NCC(=O)N[C@@H](CCC(=O)O)C(=O)N[C@@H](CC(C)C)C(=O)N[C@@H](CCC(N)=O)C(=O)N[C@H](CCCNC(=N)N)C(=O)N[C@@H](CC(C)C)C(=O)N[C@H](CCC(N)=O)C(N)=O)[C@@H](C)O (X1-VPIFTYGELQ[dR]L[dQ]-NH2) | 104 | – | 1.95 | 7.39
9 | CC[C@H](C)[C@H](NC(=O)[C@@H]1CCCN1C(=O)[C@@H](NC(=O)[C@H](Cc1ccccc1)N(C)C)C(C)C)C(=O)N[C@@H](Cc1ccccc1)C(=O)N[C@H](C(=O)N[C@@H](Cc1ccc(O)cc1)C(=O)NCC(=O)N[C@@H](CCC(=O)O)C(=O)N[C@@H](CC(C)C)C(=O)N[C@@H](C)C(=O)N[C@H](CCCNC(=N)N)C(=O)N[C@@H](CC(C)C)C(=O)N[C@@H](CCCCN)C(N)=O)[C@@H](C)O (NMe2Phe-VPIFTYGELA[dR]LK-NH2) | – | 0.003 | 1.23 | 7.64
10 | CC[C@H](C)[C@H](NC(=O)[C@@H]1CCCN1C(=O)[C@@H](NC(=O)[C@H](Cc1ccccc1)NC)C(C)C)C(=O)N[C@@H](Cc1ccccc1)C(=O)N[C@H](C(=O)N[C@@H](Cc1ccc(O)cc1)C(=O)NCC(=O)N[C@@H](CCC(=O)O)C(=O)N[C@@H](CC(C)C)C(=O)N[C@@H](CCC(N)=O)C(=O)N[C@@H](CCCNC(=N)N)C(=O)N[C@@H](CC(C)C)C(=O)N[C@@H](CCC(N)=O)C(=O)O)[C@@H](C)O [[N-MePhe^1, Leu^13]pMOT(1-14)] (H-[NMeF]VPIFTYGELQRLQ-OH) | 12.8 | – | 2.63 | 7.64
11 | CC[C@H](C)[C@H](NC(=O)[C@@H]1CCCN1C(=O)[C@@H](NC(=O)[C@H](Cc1ccccc1)N(C)C)C(C)C)C(=O)N[C@@H](Cc1ccccc1)C(=O)N[C@H](C(=O)N[C@@H](Cc1ccc(O)cc1)C(=O)NCC(=O)N[C@@H](CCC(=O)O)C(=O)N[C@@H](CC(C)C)C(=O)N[C@@H](CCC(N)=O)C(=O)N[C@H](CCCNC(=N)N)C(=O)N[C@@H](CC(C)C)C(=O)N[C@@H](CCCCN)C(N)=O)[C@@H](C)O (NMe2Phe-VPIFTYGELQ[dR]LK-NH2) | – | 0.002 | 1.17 | 7.73
